# According to patent publication US11896644B2, “Inhibition of beta-arrestin oligomerization in tauopathy” (UNIVERSITY OF SOUTH FLORIDA, priority 2020, dated 2024):
# Tests used:
# [1] = molecular target: T1, GFP-βarrestin2/Flag-βarrestin2 complexes (β-arrestin2 oligomerization) (Rattus norvegicus, UniProt P29067); assay: Proximity ligation assay (PLA) for GFP-βarrestin2/Flag-βarrestin2 complexes; format: cell-based; details: 20 μM, 6 hours, Hela-V5-tau cells
# T1 construct: expressed in transfected cells; host or cells: Hela-V5-tau cells
# T1 sequence (P29067 whole entry, one chain of several): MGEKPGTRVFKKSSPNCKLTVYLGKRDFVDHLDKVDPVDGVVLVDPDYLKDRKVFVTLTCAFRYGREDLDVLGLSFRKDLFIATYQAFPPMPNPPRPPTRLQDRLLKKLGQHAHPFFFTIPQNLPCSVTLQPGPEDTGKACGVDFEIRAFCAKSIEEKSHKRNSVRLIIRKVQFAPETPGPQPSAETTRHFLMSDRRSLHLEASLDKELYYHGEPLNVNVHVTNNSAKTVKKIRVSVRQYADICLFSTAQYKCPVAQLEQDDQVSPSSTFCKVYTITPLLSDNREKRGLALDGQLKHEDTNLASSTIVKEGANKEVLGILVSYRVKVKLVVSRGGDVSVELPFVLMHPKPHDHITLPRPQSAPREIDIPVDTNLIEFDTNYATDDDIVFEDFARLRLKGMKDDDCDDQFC
# Protocol: The assay was performed using commercially available reagents (Duolink, Sigma-Aldrich, St Louis, MO), with transfection of Hela V5-tau cells with WT β-arrestin2-flag and β-arrestin2-myc, without and with the mutant β-arrestin2 ΔIP6C or β-arrestin2 ΔIP6N constructs. Cells were fixed with 4% paraformaldehyde for 15 min at room temperature and washed with 0.2% triton in TBS. After washing, cells were blocked with 0.2% Triton in 3% Normal goat serum for 1 hour at room temperature. After applying primary antibodies overnight at 4° C., cells were washed and incubated with the PLA probes at 37° C. (1 h), washed with buffer A, incubated with ligation solution at 37° C. (30 min), washed with washing buffer A, incubated with amplification solution at 37° C. (100 min), and washed with washing buffer B before mounting.
# FIGS. 28A and 28B show compounds C2 and C2 inhibit β-arrestin2 oligomerization. Hela-V5-tau cells were transfected with GFP-βarrestin2 and Flag-βarrestin2 and treated with 20 μM of 01, C1, or C2 for 6 hours.
# [2] = test system: sarkosyl-insoluble tau in HeLa-V5-tau cells; assay: Sarkosyl soluble and insoluble fractionation of compound-treated HeLa-V5-tau cells; format: cell-based; details: 20 μM, 6 hours
# Protocol: (§1) Brain homogenates and cultured cells were lysed with RIPA buffer (50 mM Tris pH 7.4, 150 mM NaCl, 2 mM ethlenediaminetetraacetic acid, 1% NP-40, 0.1% sodium dodecyl sulfate) plus protease and phosphatase inhibitors. Proteins were extracted and centrifuged at 15000 rpm for 15 min at 4° C., and RIPA insoluble fractions were lysed with 5% SDS with 1% β-mercaptoethanol, 50 mM Tris-HCl pH 6.8, 12.5 mM EDTA, 10% glycerol, and 0.02% bromophenol blue. Supernatants were used for western blot analysis. […]. co-IP experiments were carried out from NP40 lysates or indicated buffers with preclearing with IgG beads followed by IP with IgG beads alone or IgG beads+indicated antibodies, extensive washing (5×) with the original buffer, and Western blotting on SDS-PAGE. Sarkosyl extraction was performed as previously described (Hasegawa M, et al. (2007) Brain 130(Pt 5):1386-1394). Briefly, brain homogenates were lysed with A68 buffer containing 10 mM Tris-HCl, pH 7.4, 0.8M NaCl, 10% Sucrose, 1 mM EGTA). Samples were centrifuged at 400 g for 20 min at 4° C., and 1% sarkosyl was added to the collected supernatants. The samples were incubated for 1.5 h and centrifuged at 80,000 g for 30 min at room temperature. The pellets were resuspended in 100 ul of 50 mM Tris-HCl, pH 7.4.
# FIGS. 27A and 27B show C1 and C2 compounds reduce pathogenic tau. […]
# [3] = test system: total tau levels in HeLa-V5-tau cells; assay: Total tau by western blotting in HeLa-V5-tau cells treated with compounds; format: cell-based; details: 10 μM, 6 hours
# Protocol: as §1
# (n=4, one-way ANOVA, post hoc Dunnett's, **P<0.005, ***P<0.0005).
# [4] = test system: HT7 (total human tau) in Tau-P301S hippocampal primary neurons; assay: HT7 staining of DIV21 hippocampal primary neurons from Tau-P301S mice treated with compounds; format: cell-based; details: 20 μM, 6 hours
# Protocol: Primary mouse hippocampal and cortical neuronal cultures were previously described (Woo J A, et al. (2019) Commun Biol 2:112; Woo J A, et al. (2017) Hum Mol Genet 26(20):3973-3988; Woo J A, et al. (2015) Cell Death Differ 22(6):1069-1070). Briefly, primary neurons were prepared from P0 mice. Both hippocampus and cortex were dissected separately in HBSS and digested with trypsin. Neurons were plated on glass coverslips coated with poly-D-lysine (Sigma-Aldrich, St Louis, MO, USA) and maintained in neurobasal medium with glutamax (Invitrogen, Carlsbad, CA, USA) and B27 supplement (Invitrogen, Carlsbad, CA, USA).
# Cells were fixed with 4% paraformaldehyde for 15 min at room temperature and washed with 0.2% triton in TBS and blocked using 3% BSA with 0.1% triton x-100 for 1 hr, incubated with primary antibodies for overnight at 4° C. and fluorescently labeled secondary antibodies for 45 min at room temperature. […] Images were captured with the Olympus FV10i confocal microscope (Tokyo, Japan), and the immunoreactivities were quantified using the Image J software (National Institutes of Health, Bethesda, MD). Immunoreactivities were quantitated from every 12th serial section through an entire hippocampus. […] Regions of interest were chosen randomly, and investigators were blinded to experimental conditions during image acquisition and quantification. […]
# [5] = molecular target: T2, GFP-βarrestin2/Flag-βarrestin2 complexes (βarrestin2 self-interaction) (Rattus norvegicus, UniProt P29067); assay: Co-immunoprecipitation (co-IP) for GFP-βarrestin2/Flag-βarrestin2 complexes; format: cell-based; details: 20 μM, 6 hours, Hela-V5-tau cells
# T2 construct: expressed in transfected cells; host or cells: Hela-V5-tau cells
# T2 sequence (P29067 whole entry, one chain of several): as above
# Protocol: as §1
# FIGS. 28A and 28B show compounds C2 and C2 inhibit β-arrestin2 oligomerization. […]
# [6] = test system: tau phosphorylation; details: cited from earlier work
# [7] = test system: phospho-tau; assay: Phospho-tau immunoblot in Hela-V5-tau cells transfected with siRNA and treated with GPCR agonists; format: cell-based; details: for tau phosphorylation: 10 μM, control siRNA or β-arrestin2 siRNA experiment (FIGS. 13E,13F); for phospho-tau response in β-arrestin1 siRNA transfected cells: β-arrestin1 knockdown; for tau phosphorylation, control siRNA transfected cells: β-arrestin1 siRNA experiments (FIGS. 13A-13D)
# Protocol: FIGS. 13A to 13F show β-arrestin1 is required for mGluR2 and β2AR mediated increase in pathogenic tau. […] After transfection, cells were treated with either vehicle or 10 μM isoproterenol (Iso), lysed and immunoblotted for indicated proteins. Representative blots are shown. […] 1-way ANOVA with Dunnett's test. […] Representative blots are shown. […] 1-way ANOVA with Dunnett's test. […] 1-way ANOVA with Dunnett's test.
# At present, it is not clear how different GPCRs, such as β2AR and mGluR2, and their agonists alter tau phosphorylation. One commonality of downstream signaling between these GPCRs is β-arrestin1 and β-arrestin2, which were initially identified and characterized based on its function to internalize and desensitize GPCRs, including β2AR (Lohse, M. J. et al. J Biol Chem (1992) 267:8558-8564) and mGluR2 (lacovelli, L. et al. Mol Pharmacol (2009) 75:991-1003). To test whether β-arrestin1 and/or β-arrestin2 is required for β2AR-mediated regulation of tau, Hela-V5-tau cells were transfected with control siRNA or β-arrestin1 siRNA and treated either vehicle or 10 μM Iso. […] Next, assessed was whether β-arrestin1 is required for mGluR2-mediated tau phosphorylation. […] Next, Hela-V5-tau cells were transfected with control siRNA or β-arrestin2 siRNA and treated vehicle, 10 μM Iso or LY-379,268.
# [8] = test system: phospho-tau; assay: Phospho-tau in tauP301S cortical primary neurons treated with GPCR agonists; format: cell-based, mice; details: 10 μM
# Text: FIGS. 20A to 20E show β-arrestin is required mGluR2 and β2AR mediated tau accumulation and phosphorylation. […] Representative blots are shown. […] Unpaired t-test. All data are presented as mean±SEM. […] Representative blots are shown. […] Unpaired t-test. All data are presented as mean±SEM. […] Representative blots are shown.
# Based on these prior observations, the goal was to confirm these findings in tauP301S transgenic primary neurons and Hela cells stably expressing tau (V5-tagged 4R0N tau, Hela-V5-tau cells).
# [9] = test system: tau phosphorylation; details: cited from earlier work; remark: listed apart in the source
# [10] = molecular target: T3, β-arrestin2 oligomerization (Rattus norvegicus, UniProt P29067); assay: FRET assay CFP-βarrestin2/YFP-βarrestin2 in Hela-V5-tau cells; format: cell-based; details: 20 μM, 30 min
# T3 construct: expressed in transfected cells; host or cells: Hela-V5-tau cells
# T3 sequence (P29067 whole entry): as the sequence (P29067 whole entry, one chain of several) above
Compound,βarrestin2 oligomerization by PLA [1],sarkosyl-insoluble tau levels [2],total tau levels [3],HT7 immunoreactivity (total human tau) [4],βarrestin2 self-interaction by co-IP [5],tau phosphorylation in rats [6],tau phosphorylation [7],phospho-tau response in β-arrestin1 siRNA transfected cells [7],"tau phosphorylation, control siRNA transfected cells [7]",phospho-tau [8],tau phosphorylation via ERK activation [9],CFP to YFP FRET signal [10]
"O=C(CNC(=O)c1ccc2c(c1)CCC2)NCc1cn2ccccc2n1 [C1, 2-[(2,3-dihydro-1H-inden-5-yl)formamido]-N-({imidazo[1,2-a]pyridin-2-yl}methyl)acetamide]",significant reduction,significantly decreased,significantly decreased,significantly decreased,reduce βarrestin2 self-interaction to background levels,,,,,,,
CC(C)NCC(O)c1ccc(O)c(O)c1 (stereo not drawn) [Isoproterenol],,,,,,markedly increases tau phosphorylation,increased,failed to respond,increased,significantly increased,,
"N[C@@]1(C(=O)O)CO[C@H]2[C@H](C(=O)O)[C@H]21 [LY-379,268]",,,,,,,increased,failure to respond,increased,increased,increase tau phosphorylation,
"Cc1ccc(NCCNC(=O)c2cc(-c3ccccc3)no2)nn1 [C2, N-{2-[(6-methylpyridazin-3-yl)amino]ethyl}-3-phenyl-1,2-oxazole-5-carboxamide]",significant reduction,significantly decreased,significantly decreased,significantly decreased,reduce βarrestin2 self-interaction to background levels,,,,,,,reduces CFP to YFP FRET signal
